This is an account of results in patent publication US4333934A, “Imidazoquinoxalines and pyrroloquinoxalines” (Roussel Uclaf, priority 1979, dated 1982).

Data set [1] has as its system Passive cutaneous anaphylaxis (PCA) in rats. As to the kind of experiment: Passive cutaneous anaphylaxis (PCA) in rats. Type of data set: in vivo, rat. The settings on record: for ED50: Rattus norvegicus. The source says: Cutaneous anaphylaxis was induced in groups of male rats weighing 180-220 g by intradermal (ID) sensitization with antiserum followed three days later by systemic challenge with antigen. Evans blue dye injected with the antigen was used as a marker to assess the severity of the local response. Anti-allergic drugs inhibit this reaction and this method is described by OVARY [(1962) in "Passive cutaneous Anaphylaxis in Allergology" 358-367 Ed. Brown: Pergamon Press:].
1. Wash 120 grams Al (OH)3 gel in 140 ml of saline (use of a macerater facilitates mixing).
2. Centrifuge at 3,000 r.p.m. for about 10 minutes.
3. Resuspend the precipitate with 300 ml of albumen egg powder (1.3 mg/ml) in saline and allow to stand for 30 minutes.
4. Centrifuge at 3,000 r.p.m. for 10 minutes.
5. Weigh the wet precipitate and to each gram weight, add 1 ml of saline. Store in refrigerator. (Quantity sufficient for 60 rats for a 3 day sensitization programme).
1. 1 ml of the alum precipitated ovalbumen was injected subcutaneously into 180-220 gram rats on days 0,2,4.
2. The rats were bled on day 14 either by cardiac puncture or via the dorsal abdominal aorta.
3. Equal quantities of serum from each animal were pooled and thoroughly mixed.
4. 2 ml aliquots were stored at -20° C. in plastic tubes.
The antiserum for sensitization was diluted so that an ID injection of 0.1 ml into control animals gave an average score of a single spot of between 2.0-3.5 using a 5 point scoring system (0,1,2,3,4).
Rats were anaesthetised with Nembutal (40-60 mg/kg i.p.) and were then sensitized by four ID injections (0.1 ml each) on shaved backs. The animals were then left for a period of three days to develop sensitization.
The sensitized rats were dosed orally or intraveneously with the drug immediately prior to intraveneous challenge via the superficial penile vein with 1 ml of an antigen/Evans blue mixture (1 mg albumen egg powder in 0.5 ml saline plus 0.5 ml of 1% Evans blue). The injections were speeded up by using an automatic 1 ml self-filling glass syringe. The "challenged" rats were killed after 30 minutes, (usually pithed) and their skin on the dorsal surface was removed. The degree and area of blueing, proportional to the anaphylactic reaction was assessed on a five point scoring system.
1. Total scores for sites 1,2,3 and 4=X
2. Mean value of X for each group=X

Data set [2] is described as follows: Solubility remark (footnote of Table 1). It counts as physicochemical. As to conditions: all solvents.
[3] abbreviates: iv, read-out: ED50 (dose of drug giving 50% inhibition), i.v., dosed immediately prior to intravenous antigen challenge, male rats.
[4] abbreviates: po, read-out: ED50 (dose of drug giving 50% inhibition), p.o., dosed immediately prior to intravenous antigen challenge, male rats.

Counter-ions that a name gives are not always drawn. Like-named read-outs stand apart in the source and are kept apart here.

Turning to `COc1ccc2ccc3nc(CN)cn3c2c1` [Example 15], the median effective dose (ED50) in data set [1] (setting [3]) worked out at 3.39 mg/kg.
For `CCn1c(=O)c2nc(C=O)cn2c2ccccc21` [Example 22, 4,5-dihydro-5-ethyl-4-oxo-imidazo-[1,2-a]-quinoxaline-2-carboxaldehyde], the median effective dose (ED50) in data set [1] (setting [4]) came to 0.077 mg/kg.
On the same count and under the same terms, in the case of `O=Cc1cn2c(ccc3ccccc32)n1` [Example 6, Imidazo-[1,2-a]-quinoline-2-carboxaldehyde] it was 0.09 mg/kg.
As to `Clc1ccc2c(Cl)cc3nc(-c4nnn[nH]4)cn3c2c1` [11 Step C], the “solubility (in words)” value in data set [2] is “extremely insoluble in all solvents”.
Take `c1ccc2c(c1)OCc1nc(-c3nnn[nH]3)cn1-2` [Example 30, 4H-2-(1H-tetrazol-5-yl)-imidazo-[2,1-c][1,4]-benzoxazine]: the ED50 in data set [1] (setting [3]) was 0.33 mg/kg.
Turning to `CCn1c(=O)c2nc(CO)cn2c2ccccc21` [Example 21, 5-ethyl-2-hydroxymethyl-imidazo-[1,2-a]-quinoxaline-4-(5H)-one], in data set [1] (setting [4]), the ED50 worked out at 0.062 mg/kg.
As for `c1ccc2c(c1)ncc1nc(-c3nnn[nH]3)cn12` [3 (as hydrochloride), 2-(1H-tetrazol-5-yl)-imidazo-[1,2-a]-quinoxaline], the median effective dose (ED50) in data set [1] (setting [4]) worked out at 0.084 mg/kg. Further, the “ED50 (dose of drug giving 50% inhibition), p.o.” value in data set [1] (p.o., dosed immediately prior to intravenous antigen challenge, male rats) is reported as 0.089 mg/kg.
For the molecule `CCn1c(=O)c2cc(-c3nnn[nH]3)cn2c2ccccc21` [Example 26, 5-ethyl-2-(1H-tetrazol-5-yl)-pyrrolo-[1,2-a]-quinoxaline-4(5H)-one], the median effective dose (ED50) was found to be 0.011 mg/kg in data set [1] (setting [3]) and 0.439 mg/kg in data set [1] (setting [4]).
On the same counts, the results for `c1ccc2c(c1)ccc1nc(-c3nnn[nH]3)cn12` [Example 7, 2-(1H-tetrazol-5-yl)-imidazo-[1,2-a]-quinoline] are 0.026 mg/kg and 0.105 mg/kg.
On the same counts, the results for `COc1ccc2ccc3nc(C=O)cn3c2c1` [Example 13] are 0.12 mg/kg and 0.4 mg/kg.
For `COc1ccc2ccc3nc(CO)cn3c2c1` [Example 12], the ED50 in data set [1] (setting [3]) was 0.27 mg/kg; in data set [1] (setting [4]) it was 0.24 mg/kg.
Turning to `OCc1cn2c(cnc3ccccc32)n1` [2 (as hydrochloride), Imidazo-[1,2-a]-quinoxaline-2-methanol], the ED50 in data set [1] (setting [3]) is 0.16 mg/kg; in data set [1] (setting [4]), 0.068 mg/kg.
On the same counts, the results for `NCc1cn2c(ccc3ccccc32)n1` [Example 8, Imidazo-[1,2-a]-quinoline-2-methanamine dihydrochloride] are 0.11 mg/kg and 0.98 mg/kg.
For the molecule `OCc1cn2c(ccc3ccccc32)n1` [Example 5, Imidazo-[1,2-a]-quinoline-2-methanol], the ED50 in data set [1] (setting [4]) amounted to 0.36 mg/kg.
Turning to `CCn1c(=O)c2cc(CO)cn2c2ccccc21` [Example 24, 5-ethyl-2-hydroxymethyl-pyrrolo-[1,2-a]-quinoxaline-4(5H)-one], the ED50 in data set [1] (setting [4]) was 0.045 mg/kg.
Regarding `COc1ccc2ccc3nc(-c4nnn[nH]4)cn3c2c1` [Example 14, 8-methoxy-2-(1H-tetrazol-5-yl)-imidazo-[1,2-a]-quinoline], the median effective dose (ED50) came to 0.01 mg/kg in data set [1] (setting [3]) and 0.12 mg/kg in data set [1] (setting [4]).
